Assay results as given in ChEMBL document CHEMBL5724914, “Linking interpersonal differences in gut microbiota composition and drug biotransformation activity” (2024).

assay: (§1) The drug is tested on Z-019 corresponding to rat gut metagenome with ENA study accession number: PRJEB37062 and ENA sample accession number: ERS12561818 for biotransformation under anaerobic condition. The drug concentrations were measured over 9 timepoints collected between 0 and 24 hours of incubation by liquid-chromatography-coupled mass spectrometry (LC–MS); conditions: 2 µM
Further: call rule not given here.

SMILES | Bacterial Biotransformation
Cc1ccnc2c1NC(=O)c1cccnc1N2C1CC1 [NEVIRAPINE] | Compound NOT metabolized
CCc1nn(CCCN2CCN(c3cccc(Cl)c3)CC2)c(=O)n1CCOc1ccccc1 [NEFAZODONE] | Compound NOT metabolized

assay: as §1, with “on Z-017” for “on Z-019”, “to mouse” for “to rat”, “number: ERS12561816” for “number: ERS12561818”; conditions: 2 µM

SMILES | Bacterial Biotransformation
Cc1ccnc2c1NC(=O)c1cccnc1N2C1CC1 [NEVIRAPINE] | Compound NOT metabolized
CCc1nn(CCCN2CCN(c3cccc(Cl)c3)CC2)c(=O)n1CCOc1ccccc1 [NEFAZODONE] | Compound NOT metabolized

assay: as §1, with “on Z-016” for “on Z-019”, “to mouse” for “to rat”, “number: ERS12561815” for “number: ERS12561818”; conditions: 2 µM

SMILES | Bacterial Biotransformation
Cc1ccnc2c1NC(=O)c1cccnc1N2C1CC1 [NEVIRAPINE] | Compound NOT metabolized
CCc1nn(CCCN2CCN(c3cccc(Cl)c3)CC2)c(=O)n1CCOc1ccccc1 [NEFAZODONE] | Compound NOT metabolized

assay: as §1, with “Z-014” for “Z-019”, “ERS12561814” for “ERS12561818”; conditions: 2 µM

SMILES | Bacterial Biotransformation
Cc1ccnc2c1NC(=O)c1cccnc1N2C1CC1 [NEVIRAPINE] | Compound NOT metabolized
CCc1nn(CCCN2CCN(c3cccc(Cl)c3)CC2)c(=O)n1CCOc1ccccc1 [NEFAZODONE] | Compound NOT metabolized

assay: as §1, with “on Z-013” for “on Z-019”, “to rabbit” for “to rat”, “number: ERS12561813” for “number: ERS12561818”; conditions: 2 µM

SMILES | Bacterial Biotransformation
Cc1ccnc2c1NC(=O)c1cccnc1N2C1CC1 [NEVIRAPINE] | Compound NOT metabolized
CCc1nn(CCCN2CCN(c3cccc(Cl)c3)CC2)c(=O)n1CCOc1ccccc1 [NEFAZODONE] | Compound NOT metabolized

assay: as §1, with “Z-008” for “Z-019”, “to” for “to rat gut”, “ERS12561808” for “ERS12561818”; conditions: 2 µM

SMILES | Bacterial Biotransformation
Cc1ccnc2c1NC(=O)c1cccnc1N2C1CC1 [NEVIRAPINE] | Compound NOT metabolized
CCc1nn(CCCN2CCN(c3cccc(Cl)c3)CC2)c(=O)n1CCOc1ccccc1 [NEFAZODONE] | Compound NOT metabolized

assay: as §1, with “on WLS-310” for “on Z-019”, “to human” for “to rat”, “number: ERS12561785” for “number: ERS12561818”; conditions: 2 µM

SMILES | Bacterial Biotransformation
Cc1ccnc2c1NC(=O)c1cccnc1N2C1CC1 [NEVIRAPINE] | Compound metabolized
CCc1nn(CCCN2CCN(c3cccc(Cl)c3)CC2)c(=O)n1CCOc1ccccc1 [NEFAZODONE] | Compound metabolized

assay: as §1, with “on WLS-220” for “on Z-019”, “to human” for “to rat”, “number: ERS12561769” for “number: ERS12561818”; conditions: 2 µM

SMILES | Bacterial Biotransformation
Cc1ccnc2c1NC(=O)c1cccnc1N2C1CC1 [NEVIRAPINE] | Compound metabolized
CCc1nn(CCCN2CCN(c3cccc(Cl)c3)CC2)c(=O)n1CCOc1ccccc1 [NEFAZODONE] | Compound metabolized

assay: as §1, with “on WLS-086” for “on Z-019”, “to human” for “to rat”, “number: ERS12561752” for “number: ERS12561818”; conditions: 2 µM

SMILES | Bacterial Biotransformation
Cc1ccnc2c1NC(=O)c1cccnc1N2C1CC1 [NEVIRAPINE] | Compound metabolized
CCc1nn(CCCN2CCN(c3cccc(Cl)c3)CC2)c(=O)n1CCOc1ccccc1 [NEFAZODONE] | Compound metabolized

assay: as §1, with “on WLS-073” for “on Z-019”, “to human” for “to rat”, “number: ERS12561749” for “number: ERS12561818”; conditions: 2 µM

SMILES | Bacterial Biotransformation
Cc1ccnc2c1NC(=O)c1cccnc1N2C1CC1 [NEVIRAPINE] | Compound NOT metabolized
CCc1nn(CCCN2CCN(c3cccc(Cl)c3)CC2)c(=O)n1CCOc1ccccc1 [NEFAZODONE] | Compound NOT metabolized

assay: as §1, with “on WLS-038” for “on Z-019”, “to human” for “to rat”, “number: ERS12561745” for “number: ERS12561818”; conditions: 2 µM

SMILES | Bacterial Biotransformation
Cc1ccnc2c1NC(=O)c1cccnc1N2C1CC1 [NEVIRAPINE] | Compound NOT metabolized
CCc1nn(CCCN2CCN(c3cccc(Cl)c3)CC2)c(=O)n1CCOc1ccccc1 [NEFAZODONE] | Compound metabolized

assay: as §1, with “on WLS-007” for “on Z-019”, “to human” for “to rat”, “number: ERS12561742” for “number: ERS12561818”; conditions: 2 µM

SMILES | Bacterial Biotransformation
Cc1ccnc2c1NC(=O)c1cccnc1N2C1CC1 [NEVIRAPINE] | Compound metabolized
CCc1nn(CCCN2CCN(c3cccc(Cl)c3)CC2)c(=O)n1CCOc1ccccc1 [NEFAZODONE] | Compound metabolized

conditions: human gut metagenome, 24 h, 2 µM

SMILES | Bacterial Biotransformation
Cc1ccnc2c1NC(=O)c1cccnc1N2C1CC1 [NEVIRAPINE] | Compound NOT metabolized
CCc1nn(CCCN2CCN(c3cccc(Cl)c3)CC2)c(=O)n1CCOc1ccccc1 [NEFAZODONE] | Compound NOT metabolized

conditions: human gut metagenome, 24 h, 2 µM; remark: another data set of the same source

SMILES | Bacterial Biotransformation
Cc1ccnc2c1NC(=O)c1cccnc1N2C1CC1 [NEVIRAPINE] | Compound NOT metabolized
CCc1nn(CCCN2CCN(c3cccc(Cl)c3)CC2)c(=O)n1CCOc1ccccc1 [NEFAZODONE] | Compound NOT metabolized

conditions: human gut metagenome, 24 h, 2 µM; remark: another data set of the same source

SMILES | Bacterial Biotransformation
Cc1ccnc2c1NC(=O)c1cccnc1N2C1CC1 [NEVIRAPINE] | Compound metabolized
CCc1nn(CCCN2CCN(c3cccc(Cl)c3)CC2)c(=O)n1CCOc1ccccc1 [NEFAZODONE] | Compound NOT metabolized

conditions: human gut metagenome, 24 h, 2 µM; remark: another data set of the same source

SMILES | Bacterial Biotransformation
Cc1ccnc2c1NC(=O)c1cccnc1N2C1CC1 [NEVIRAPINE] | Compound NOT metabolized
CCc1nn(CCCN2CCN(c3cccc(Cl)c3)CC2)c(=O)n1CCOc1ccccc1 [NEFAZODONE] | Compound NOT metabolized

conditions: human gut metagenome, 24 h, 2 µM; remark: another data set of the same source

SMILES | Bacterial Biotransformation
Cc1ccnc2c1NC(=O)c1cccnc1N2C1CC1 [NEVIRAPINE] | Compound NOT metabolized
CCc1nn(CCCN2CCN(c3cccc(Cl)c3)CC2)c(=O)n1CCOc1ccccc1 [NEFAZODONE] | Compound metabolized

conditions: human gut metagenome, 24 h, 2 µM; remark: another data set of the same source

SMILES | Bacterial Biotransformation
Cc1ccnc2c1NC(=O)c1cccnc1N2C1CC1 [NEVIRAPINE] | Compound NOT metabolized
CCc1nn(CCCN2CCN(c3cccc(Cl)c3)CC2)c(=O)n1CCOc1ccccc1 [NEFAZODONE] | Compound metabolized

conditions: human gut metagenome, 24 h, 2 µM; remark: another data set of the same source

SMILES | Bacterial Biotransformation
Cc1ccnc2c1NC(=O)c1cccnc1N2C1CC1 [NEVIRAPINE] | Compound metabolized
CCc1nn(CCCN2CCN(c3cccc(Cl)c3)CC2)c(=O)n1CCOc1ccccc1 [NEFAZODONE] | Compound metabolized

conditions: human gut metagenome, 24 h, 2 µM; remark: another data set of the same source

SMILES | Bacterial Biotransformation
Cc1ccnc2c1NC(=O)c1cccnc1N2C1CC1 [NEVIRAPINE] | Compound metabolized
CCc1nn(CCCN2CCN(c3cccc(Cl)c3)CC2)c(=O)n1CCOc1ccccc1 [NEFAZODONE] | Compound metabolized
